Source: US6638938B1, “Method for preventing tissue injury from hypoxia” (Cell Therapeutics, Inc., priority 1993, dated 2003)

How the values were obtained:
[1] = tested on: human neutrophils (PA, lyso-PA); test: PA and lyso-PA mass in human neutrophils after hypoxia/reoxygenation; assay type: cell-based
Method: This example provides evidence from a group of experiments of the nexus and relationship between inhibiting linoleate-enriched PA species and reversal of hypoxic/reoxygenation tissue injury with Lisofylline. Lisofylline treated human neutrophils were exposed to hypoxia and then reoxygenation in vitro. Human neutrophils (PMN) were prepared from heparinized blood obtained from consenting, healthy human volunteers, isolated and highly purified (>99%)-by percoll gradient anddifferential centrifugation and resuspended in HBSS (Hanks balanced salt solution). Human neutrophils were placed in hypoxia (95% N2+5% CO2) for 60 min and then reoxygenated (21% O2+5% CO2) for 20 min.
Following hypoxia/reoxygenation, human neutrophils had increased PA concentrations with a retention time (Rf) characteristic of linoleate-enriched PA species. The analysis was done by fixing the neutrophils in ice-cold methanol, extracting the lipids and then separating them by HPLC using a Waters μ-Porosil silica column and an anisocratic gradient (Bursten et al., J. Biol. Chem. 266:20732, 1991). Lipids in the column effluent were monitored at 206-224nm. HPLC fractions were also analyzed by thin layer chromatography (TLC), amine content, acyl content and mass spectroscopy to confirm peak identities. Fast-atom bombardrment (FAB) mass spectroscopy spectra were acquired using a VG 70 SEQ tandem hybrid instrument of EBqQ geometry (VG Analytical, Altricham UK) as described in Bursten et al. The mass of total PA varied from 0.65-0.75% in unstimulated neutrophils to 2.7-3.6% of total detectable lipids in stimulated neutrophils (i.e., increased by 3.5-5 fold), whereas lyso-PA mass in neutrophils pretreated with Lisofylline and subject to hypoxia/reoxygenation stimulation could range as high as 7-8% of total detectable lipids. Hypoxia/reoxygenated neutrophils preincubated with 10 μM to 100 μM Lisofylline had decreased PA and increased lyso-PA total mass compared to untreated but stimulated neutrophils.

[2] = serum level of Lisofylline in hemorrhaged mice; assay type: in vivo; details: male, mouse, intravenous, hemorrhaged Balb/C mice, 5 minutes after 100 mg/kg Lisofylline given with resuscitation blood, read-out: serum levels of Lisofylline
Method: This example illustrates a study of Lisofylline in a murine hemorrhage and resuscitation model. Male Balb/C mice, 8-12 weeks of age, were obtained from Harlan-Sprague Dawley (Indianapolis, Ind.). The animals were kept on a 12 hour light/dark cycle with free access to food and water. With this model, 30% of the calculated blood volume (approximately 0.55 ml for a 20 gram mouse) was withdrawn from a methoxyflurane anesthetized mouse by cardiac puncture over a 60-second period. The blood was collected into a heparinized syringe (5 units heparin), kept at 37° C. for one hour, then reinfused into the mouse through a retroorbital plexus injection. Using this method, one is able to resuscitate all hemorrhaged mice without complication. The total period of methoxyflurane anesthesia is less than 2 minutes in all cases. The mortality rate with this hemorrhage protocol is approximately 12%, with all deaths occurring over the 24 hours post hemorrhage, and most deaths occurring within the one hour post hemorrhage.
Mice were treated with 100 mg/kg Lisofylline in 0.2 ml PBS and given initially i.v., by retroorbital injection, then i.p. every 8 hours for a total of 9 doses. In hemorrhaged mice, the Lisofylline in PBS was added to the shed blood, and then given retroorbitally with the blood during the resuscitation phase. […]

human neutrophils = test: neutrophil adherence to nylon fiber; assay type: cell-based
Source text: Human recombinant interleukin-1α (IL-1) was obtained from Hoffmann-LaRoche, Inc. (Nutley, N.J.), frozen inaliquots and thawed daily for use. Ketamine hydrochloride was obtained from Parke-Davis (Morris Plains, N.J.), xylazine from Haver (New York, N.J.), ^125I labeled bovine serum albumin (BSA) from ICN Radiochemicals (Irvine, Calif.), and heparin sodium from Elkins-Sinn, Inc. (Cherry Hill, N.J.). All other reagents were purchased from Sigma Chemical Co. (St. Louis, Mo.). Neutrophils were purified from human blood by well described methods. Venous blood was anticoagulated with heparin and the cellular elements were separated from platelet-rich plasma by centrifugation. Cell pellets were resuspended in platelet-poor plasma and diluted 1:4 with 6% dextran (Pharmacia Fine Chemicals, Piscataway, N.J.) in saline. Red cells were separated from leukocytes by sedimentation. Leukocyte-rich supernatants were then aspirated, underlain with Ficoll-Hypaque (Pharmacia Fine Chemicals), and centrifuged at 275×g to separate neutrophils and monocytes. Sedimented neutrophils were resuspended in Hank's balanced salt solution (HBSS). These preparations contained 94 to 96% neutrophils and 4 to 6% monocytes. All values were compared by analysis of variance and corrected by post hoc Student t tests for differences between groups. A p value of <0.05 was considered significant.
Neutrophil adherence was measured using the nylon fiber technique. Briefly, 50 mg of scrubbed nylon fiber (3-XXX), 3.81 cm type 200 (Travenol Laboratories, Deerfield, Ill.), was packed into the distal 10 mm of the barrels of tuberculin syringes. Ficoll-Hypaque-purified human neutrophils (1×10^7 cells) in plasma (total volume, 0.25 ml) with and without Lisofylline were then placed in the top of the nylon fiber column which was maintained at 37° C. After 90 sec, the plunger was inserted and the samples were eluted. Eluted neutrophils were counted by hemocytometer, and percentages of neutrophils adhering to the nylon fiber were calculated by the following formula: [formula]
Neutrophil chemotactic activity was determined by Boyden chamber assay and quantitated as the number of migrating PMN/5HPF using zymosan-activated serum (ZAS) as the chemoattractant (Repine et al., J. Reticuloendo. Soc. 24:217, 1978). Neutrophil adherence was assessed by quantitating the percentage of neutrophils adhering to nylon fibers following addition of phorbol myristate acetate (PMA 10-^6M, Sigma) (Rasp et al., J. Reticuloendo. Soc. 25:101, 1979). Neutrophil superoxide production was determined by quantitating superoxide dismutase inhibitable reduction of cytochrome c in response to PMA (10^−6 M) (Berger et al., J. Infectious Dis. 149:413, 1984).

[3] = hypoxia/reoxygenated neutrophils preincubated with 10 μM to 100 μM, versus untreated but stimulated

Question: With `C[C@@H](O)CCCCn1c(=O)c2c(ncn2C)n(C)c1=O` [Lisofylline, 1-R-(5-hydroxyhexyl)-3,7-dimethylxanthine] as the compound, how does the PA total mass [1, 3] read?
Answer: Its PA total mass is “decreased”.

Question: And the lyso-PA total mass [1, 3]?
Answer: Its lyso-PA total mass is “increased”.

Question: And the lyso-PA mass ([1]; neutrophils pretreated with Lisofylline, hypoxia/reoxygenation stimulation, could range as high as)?
Answer: The lyso-PA mass was 7-8 % of total detectable lipids.

Question: What about the concentration at 5 min [2] of the same compound?
Answer: Its concentration at 5 min is 44000 ± 6000 ng/mL.

Question: And the “Neutrophil Adherence” value (human neutrophils; Neutrophils + PMA + Lisofylline 0.7 μM)?
Answer: Its value is 35.8 ± 4.52 (4)δ %.

Question: And the “Neutrophil Adherence” value (human neutrophils; Neutrophils + PMA + Lisofylline 7 μM)?
Answer: The value was 38.8 ± 1.38 (4)δ %.

Question: And the “Neutrophil Adherence” value (human neutrophils; Neutrophils + PMA + Lisofylline 70 μM)?
Answer: Its value is 25.6 ± 2.78 (5)δ %.

Question: What about the “Neutrophil Adherence” value (human neutrophils; Neutrophils + PMA + Lisofylline 700 μM) of the same compound?
Answer: Its value is 26.6 ± 6.03 (5)δ %.

Question: And the “stimulated human neutrophil adherence” value (human neutrophils; PMA 10^-6 M, in vitro)?
Answer: The value was “reduced”.
